Legend:
melanoma cells = assay: Migration, invasion, clonogenicity with excess GH; assay type: cell-based, human; settings: up to 150 ng/ml GH
Procedure: Cell migration assays are standard methods of estimating the repair and regenerative properties of cells. In this example, the Radius Cell Migration Assay design from Cell Biolabs (Cell Biolabs #CBA-125, San Diego, Calif.) was used, and experiments were performed as per the manufacturer's protocol. In this assay, a 24-well plate containing a non-toxic, 0.68 mm biocompatible hydrogel spot is present at the center of the well, which spot prevents the attachment of cells. siRNA treated cells were trypsinized 48 hours post-transfection, counted, and seeded at 5000 cells/well in a pretreated hydrogel spot-containing 24-well plate. […] Images were captured every 24 hours using a 4× objective (total magnification 40×) employing an inverted Olympus IX70 microscope fitted with a Retiga 1300 camera (QImaging, Surrey, BC). Total uncovered area at the beginning and end of assay were quantitated using ImageJ software, Experiments were performed in triplicates.
The 96-well 3D spheroid BME cell invasion assay (Trevigen, Gaithersburg, Md.) was used to evaluate the ability of cells to invade surrounding tissue. […] The invasive behavior of the cells was monitored every 24 hours for up to 72 hours. […] Total pixels at the beginning and end of assay were quantitated using ImageJ software. […]
Colony formation on soft agar assay was next examined using a high-throughput fluorescent readout. […]

human melanoma cells = assay: RT-qPCR of RNA levels after hGH addition or GHR-KD; assay type: cell-based
Procedure: For hGH treatment, 16 hours after seeding (or 24 hours post-transfection), the cells were serum-starved for 2 hours in serum-free growth media, and hGH (phosphate buffered saline was used as control where applicable) was added at the noted concentrations (0-, 5-, 50-, and 150 ng/ml). Cells were subsequently incubated for 24 hours before evaluating RNA levels. Recombinant hGH was purchased from Antibodies Online (#ABIN2017921, Atlanta, Ga.).
Transfection was performed using siLentFect lipid reagent (Biorad #170-3360, Hercules, Calif.) following the manufacturer's protocol. […] Mock transfections were performed using universal scrambled negative control siRNA-duplex (Origene #SR30004). TYE-563-fluorescent labeled siRNA duplex (Origene #SR30002) was used as the transfection control. Cells were trypsinized, counted using a Countess Automated Cell Counter (Life Technologies, Carlsbad, Calif.), and seeded at 25,000-30,000 cells/cm^2, the cells being allowed to attach for 16-18 hours. The growth media was replaced with fresh antibiotic free complete growth medium just prior to transfection. […] Media was changed to complete growth medium plus antibiotics after 24 hours. RNA levels were analyzed 48 hours post-transfection, and protein levels were analyzed at 60 hours post-transfection.
RNA extraction was performed using the IBI-Trizol based total RNA purification kit (MidSci #IB47632, St. Louis, Mo.), and reverse transcription was performed using Maxima First Strand cDNA synthesis kit (Thermo Fisher Scientific #K1642, Waltham, Mass.) following the manufacturers' protocols. Real time-quantitative PCR and melt curve analysis were performed using Maxima SYBR-Green qPCR master mix (Thermo Fisher Scientific #K0241) and a T100 thermal cycler (Biorad #1861096, Hercules, Calif.). RNA and DNA concentrations were estimated using a Nanodrop2000 (Thermo Fisher Scientific, Waltham, Mass.) spectrophotometer. Primers were obtained from Sigma-Aldrich for the following human genes, with primer efficiency being experimentally confirmed: GAPDH, b-Actin, GHR, GHRHR, SOCS2, IGF1, IGF1R, IGF2, IGF2R, PRL, PRLR, insulin (Ins), IR, IGFBP2, IGFBP3, EGFR, HGF, cMET and ERBB3. Each sample represented a pool of two replicates per experiment. Experiments were performed at least three times. Each qPCR for individual genes and every treatment for every cell type was performed in triplicates.
And so—referring now to FIGS. 12A-12B, 17A-17C, 18A-18F, 19A-19F, and 20A-20F—RT-qPCR analysis of GH-IGF axis in human melanoma cells (FIGS. 12A-12B) and RT-qPCR analysis of GH-GHR and PRL-PRLR pairs in human melanoma cells (FIGS. 17A-17C) was performed. […] The percentage free area at the end time point was calculated using ImageJ software and reflected the decrease/inhibition in migration. […]

[1] = SK-MEL-28 and MALME-3M, maximum GH concentrations

## hGH: Recombinant human growth hormone, Antibodies Online #ABIN2017921
Melanoma cells
  melanoma migration, invasion, or clonogenicity upon incubation with excess GH: No marked increase
Human melanoma cells; 50 ng/mL GH, with anti-cancer drugs
  level of decrease of some ABC-transporters in presence of GH: ~2 fold
Human melanoma cells; GH stimulation or GHR-KD
  ERBB3 RNA levels: upregulation
Human melanoma cells; [1]
  HGF expression level upregulated with added GH: more than 2 fold
  MET expression level upregulated with added GH: more than 2 fold
